Experimental data published in article PMC9503608, “An Insight into Symmetrical Cyanine Dyes as Promising Selective Antiproliferative Agents in Caco-2 Colorectal Cancer Cells” (Molecules, 2022).
Where two headings read alike, the source gives them in different places.

Legend:
[1] = tested on: PC-3 prostate adenocarcinoma cell line; assay: MTT cell viability assay, PC-3; type: cell-based, human
Procedure: (§1) Caco-2, MCF-7, PC-3, and NHDF cell lines were obtained from the American Type Culture Collection (ATCC) and maintained in 75 cm^2 culture flasks in a humidified atmosphere at 37 °C with 5% carbon dioxide using a LEEC Culture Safe Precision CO2 Incubator. The culture media was renewed every two to three days. The NHDF cell line was cultured in Roswell Park Memorial Institute (RPMI) medium supplemented with 10% of inactivated fetal bovine serum (FBS), 2 mM of L-glutamine, 10 mM of 4-(2-hydroxyethyl)-1-piperazineethanesulfonic acid (HEPES), 1 mM of sodium pyruvate, and 1% of antibiotic/antimycotic mixture (Ab; 10,000 U/mL of penicillin G, […] of streptomycin, and 25 µg/mL of amphotericin B). The PC-3 cell line was also cultured in RPMI 1640 medium supplemented with 10% inactivated FBS and 1% of an antibiotic mixture (Sp; 10,000 U/mL of penicillin G and […] of streptomycin). The Caco-2 and MCF-7 cell lines were grown in Dulbecco’s Modified Eagle Medium (DMEM). Caco-2 was supplemented with 20% of inactivated FBS and 1% of Sp. On the other hand, the MCF-7 medium was complemented with 10% of inactivated FBS and 1% of Ab. All manipulations were performed in a Labculture Class II A2 Biological Safety Cabinet.
(§2) After the near confluency of cultures, cells were detached with a solution of 0.125 g/L trypsin and 0.02 g/L ethylenediaminetetracetic acid (EDTA), counted using the trypan blue method, resuspended, and seeded in 96-well culture plates (100 µL, 2 × 10^4 cells/mL). Following 48 h of adherence, cells were treated with the test solutions and incubated for 72 h. This incubation, as well as the solution manipulations, were performed in an environment protected from light. After the incubation, the medium was replaced with a fresh incomplete culture medium (without FBS and Ab or Sp) and MTT solution (5 mg/mL in phosphate buffer saline (PBS)). After additional incubation for 4 h, the MTT medium was removed, formazan crystals were dissolved in DMSO, and the optical density of each well was measured at 570 nm using a microplate spectrophotometer Bio-Rad xMark. Untreated cells were used as a negative control and 5-FU as the positive control. The results were expressed as the relative cell proliferation relative to the negative control cells. […] To determine the IC50 values, Caco-2, MCF-7, PC-3, and NHDF cells were exposed to increasing concentrations between 0.001 and 100 μM.

[2] = tested on: Caco-2 colorectal adenocarcinoma cell line; assay: MTT cell viability assay, Caco-2; type: cell-based, human; settings: for SI Caco-2 (selectivity index, cancer versus NHDF): Caco-2 versus NHDF; for IC50: 72 h of incubation, MTT, protected from light; for viability at 10 µM: read-out: cell viability percentage in relation with control, Caco-2
Procedure: as §1, §2

[3] = tested on: normal human dermal fibroblasts (NHDF); assay: MTT cell viability assay, NHDF; type: cell-based; settings: for IC50: 72 h of incubation, MTT, protected from light; for cell viability percentage in relation with control, NHDF: single concentration of 10 µM, mean ± SD
Procedure: as §1, §2

[4] = MTT cell viability assay, NHDF; type: cell-based, human; settings: human, normal human dermal fibroblasts (NHDF), single concentration of 10 µM, 72 h, mean ± SD; read-out: cell viability percentage in relation with control, NHDF
Procedure: as §1, §2

[5] = tested on: MCF-7 breast adenocarcinoma cell line; assay: MTT cell viability assay, MCF-7; type: cell-based, human; settings: for viability at 10 µM: Homo sapiens, read-out: cell viability percentage in relation with control, MCF-7
Procedure: as §1, §2

[6] = MTT cell viability assay, Caco-2; type: cell-based, human; settings: human, 72 h, read-out: SI Caco-2 (selectivity index, cancer versus NHDF)
Procedure: as §1, §2

[7] = Homo sapiens, 72 h, single concentration of 10 µM, 72 h, mean ± SD; read-out: cell viability percentage in relation with control, PC-3
[8] = Homo sapiens, Caco-2, 72 h, single concentration of 10 µM, 72 h, mean ± SD
[9] = MCF7, 72 h, single concentration of 10 µM, 72 h, mean ± SD
[10] = single concentration of 10 µM, 72 h, mean ± SD

Structure (SMILES) | viability at 10 µM [1, 7] [%] | SI Caco-2 (selectivity index, cancer versus NHDF) ([2]; 72 h) | IC50 ([2]; Homo sapiens, Caco-2, 72 h) [nM] | viability at 10 µM [2, 8] [%] | IC50 ([3]; Homo sapiens, NHDF, 72 h) [nM] | viability at 72 h, 10 µM [4] [%] | viability at 10 µM [5, 9] [%] | selectivity ratio at 72 h ([6]; Caco-2, Caco-2 versus NHDF) | melting point [°C] | further results
CN1/C(=C/c2sc3ccccc3[n+]2C)Sc2ccccc21 [Dye 2, Methyl-2-((3-methylbenzo[d]thiazol-2(3H)-ylidene)methyl)benzo[d]thiazol-3-ium chloride] | 1.29 ± 0.24 | 1.2 | 650 | 2.18 ± 0.64 | 770 | 5.64 ± 1.15 | 0.85 ± 0.34 |  |  | 
CN1C(=Cc2sc3ccccc3[n+]2C)Sc2ccccc21.[Br-] [Dye 3, 3-Methyl-2-((3-methylbenzo[d]thiazol-2(3H)-ylidene)methyl)benzo[d]thiazol-3-ium bromide] | 1.27 ± 0.31 | 0.8 | 520 | 1.68 ± 0.53 | 410 |  |  |  |  | cell viability percentage in relation with control, NHDF ([3]; 72 h): 3.93 ± 0.75%; cell viability percentage in relation with control, MCF-7 [5, 10]: 0.52 ± 0.39%
CN1C(=Cc2sc3ccccc3[n+]2C)Sc2ccccc21.[I-] [Dye 4, 3-Methyl-2-((3-methylbenzo[d]thiazol-2(3H)-ylidene)methyl)benzo[d]thiazol-3-ium iodide] |  | 1.8 |  |  |  |  |  |  |  | cell viability percentage in relation with control, PC-3 [1, 10]: 1.18 ± 0.36%; IC50 ([2]; listed as 4): 400 nM; cell viability percentage in relation with control, Caco-2 [2, 10]: 3.01 ± 0.74%; IC50 ([3]; listed as 4): 730 nM; cell viability percentage in relation with control, NHDF ([3]; 72 h): 3.82 ± 0.21%; cell viability percentage in relation with control, MCF-7 [5, 10]: 2.26 ± 0.82%
CN1C(=Cc2sc3ccccc3[n+]2C)Sc2ccccc21.Cc1ccc(S(=O)(=O)[O-])cc1 [Dye 5, 3-Methyl-2-((3-methylbenzo[d]thiazol-2(3H)-ylidene)methyl)benzo[d]thiazol-3-ium 4-methylbenzenesulfonate] |  | 2.4 |  |  |  |  |  |  |  | cell viability percentage in relation with control, PC-3 [1, 10]: 1 ± 0.18%; IC50 ([2]; listed as 5): 280 nM; cell viability percentage in relation with control, Caco-2 [2, 10]: 2.55 ± 0.58%; IC50 ([3]; listed as 5): 680 nM; cell viability percentage in relation with control, NHDF ([3]; 72 h): 4.42 ± 0.55%; cell viability percentage in relation with control, MCF-7 [5, 10]: 1.55 ± 0.53%
CCN1C(=Cc2sc3ccccc3[n+]2CC)Sc2ccccc21 [Dye 6] | 2.06 ± 0.89 |  | 300 | 3.52 ± 0.3 | 490 | 3.37 ± 0.65 | 1.08 ± 0.23 | 1.6 |  | 
CCN1C(=Cc2sc3ccccc3[n+]2CC)Sc2ccccc21.[O-][Cl+3]([O-])([O-])[O-] [Dye 7, 3-Ethyl-2-((3-ethylbenzo[d]thiazol-2(3H)-ylidene)methyl)benzo[d]thiazol-3-ium perchlorate] |  |  |  |  |  | 3.34 ± 0.14 |  |  | 296 to 297 | viability at 10 µM ([1]; Homo sapiens, 72 h, read-out: cell viability percentage in relation with control, PC-3): 1.19 ± 0.29%; selectivity ratio at 72 h ([6]; Caco-2 versus NHDF): 3; viability at 10 µM ([2]; Homo sapiens, Caco-2, 72 h): 3.11 ± 0.94%; IC50 ([2]; Homo sapiens, Caco-2): 280 nM; IC50 ([3]; Homo sapiens, NHDF): 830 nM; viability at 10 µM ([5]; MCF7, 72 h): 0.96 ± 0.61%
C(=C1Sc2ccccc2N1Cc1ccccc1)c1sc2ccccc2[n+]1Cc1ccccc1.[I-] [Dye 8, 3-Benzyl-2-((3-benzylbenzo[d]thiazol-2(3H)-ylidene)methyl)benzo[d]thiazol-3-ium iodide] | 1.16 ± 0.49 |  | 950 | 0.32 ± 0.03 | 930 | 2.04 ± 0.39 | 1.47 ± 1.13 | 1 | 249 to 250 | 
COC(=O)CN1C(=Cc2sc3ccccc3[n+]2CC(=O)OC)Sc2ccccc21.[Br-] [Dye 9, 3-(2-Methoxy-2-oxoethyl)-2-((3-(2-methoxy-2-oxoethyl)benzo[d]thiazol-2(3H)-ylidene)methyl)benzo[d]thiazol-3-ium bromide] | 46.8 ± 14 |  | 1000 | 47 ± 6.81 |  | 47.9 ± 3.64 | 49 ± 13.9 | 0.7 | 226 to 227 | 
CCCCCN1C(=Cc2sc3ccccc3[n+]2CCCCC)Sc2ccccc21.[I-] [Dye 10, 3-Pentyl-2-((3-pentylbenzo[d]thiazol-2(3H)-ylidene)methyl)benzo[d]thiazol-3-ium iodide] | 0.97 ± 0.26 | 0.7 | 1240 | 1.02 ± 0.42 | 670 | 0.1 ± 0.36 | 0.87 ± 2.53 | 0.6 | 164 to 166 | IC50 [2]: 1000 nM
CCCCCCCCCCN1C(=Cc2sc3ccccc3[n+]2CCCCCCCCCC)Sc2ccccc21.[I-] [Dye 11, 3-Decyl-2-((3-decylbenzo[d]thiazol-2(3H)-ylidene)methyl)benzo[d]thiazol-3-ium iodide] | 0.94 ± 0.11 |  | 1240 | 0.66 ± 0.44 | 720 | 0.15 ± 0.38 | 0.1 ± 0.69 | 0.6 | 232 to 233 | 
CCN1C(=CC=Cc2oc3ccccc3[n+]2CC)Oc2ccccc21 [Dye 15, 3-Ethyl-2-(3-(3-ethylbenzo[d]oxazol-2(3H)-ylidene)prop-1-en-1-yl)benzo[d]oxazol-3-ium iodide] | 13.3 ± 1.9 |  | 390 | 8.58 ± 0.92 | 4020 | 3.72 ± 0.23 | 6.03 ± 0.77 | 10.4 |  | 
CCCCCCCCCCN1C(=CC=C2CCCC(C=Cc3[se]c4ccccc4[n+]3CCCCCCCCCC)=C2Cl)[Se]c2ccccc21.[I-] [Dye 18, 2-(2-(2-Chloro-3-(2-(3-decylbenzo[d][1,3]selenazol-2(3H)-ylidene)ethylidene)cyclohex-1-en-1-yl)vinyl)-3-decylbenzo[d][1,3]selenazol-3-ium iodide] |  |  |  |  |  | 36.6 ± 1.75 |  |  | 221 to 224 | viability at 10 µM ([1]; Homo sapiens; single concentration of 10 µM, 72 h, mean ± SD; read-out: cell viability percentage in relation with control, PC-3): 28.4 ± 7.73%; viability at 10 µM ([2]; Homo sapiens, Caco-2, single concentration of 10 µM, 72 h, mean ± SD): 47.2 ± 5.29%; viability at 10 µM ([5]; MCF7, single concentration of 10 µM, 72 h, mean ± SD): 51.8 ± 10.1%
CC1(C)C(=CC=C2CCCC(C=CC3=[N+](CCCCS(=O)(=O)O)c4ccccc4C3(C)C)=C2Cl)N(CCCCS(=O)(=O)O)c2ccccc21 [Dye 19, 2-(2-(2-Chloro-3-(2-(3,3-dimethyl-1-(4-sulfobutyl)indolin-2-ylidene)ethylidene)cyclohex-1-en-1-yl)vinyl)-3,3-dimethyl-1-(4-sulfobutyl)-3H-indol-1-ium iodide] | 51.1 ± 5.32 |  |  | 57.4 ± 1.75 |  | 42 ± 1.76 | 94.4 ± 7.99 |  |  | 
c1ccc2sc(Cc3nc4ccccc4s3)nc2c1 [bisbenzothiazole 1, bis(benzo[d]thiazol-2-yl)methane] | 53.2 ± 9.68 |  |  | 59.6 ± 5.45 |  | 31 ± 0.57 | 55.7 ± 4.97 |  | 97 to 98 | 
